# According to patent publication US20210017607A1, “Methods of Predicting Responsiveness to Cancer Therapies” (The University of Chicago, priority 2019, published 2021):
# Test system: Myc-CAP-PTEN^−/− tumors
# Experiment: Myc-CAP-PTEN−/− syngeneic tumors in vivo (growth, flow cytometry)
# Parameters: species or system mouse
# Protocol: FIGS. 35A-35D. […] (35A) Myc-CAP-PTEN^−/− cells were treated with copanlisib […] (IC90 concentration) in vitro for 24 hours, and protein extracts were harvested for western blotting analysis with the indicated antibodies to analyze PI3K activation. (35B) Supernatants from (35A) were harvested for cytokine array profiling. n=3 independent in vitro experiments. (35C) Mice bearing Myc-CAP-PTEN^−/− established syngeneic tumors (200 mm^3) were treated with copanlisib (14 mg/kg, every other day, until tumors reached 2000 mm^3). Tumor volumes were monitored daily and graphed. (35D) At the end of treatment, tumors were analyzed by flow cytometry for tumor infiltrating immune cell subsets. n=5 mice per group.
# FIGS. 37A and 37B. Myc-CAP-PTEN deficient cancers are resistant to ADT/PARPi/PI3Ki/combination due to an absence of macrophage infiltration/activation and secondary CD8/CD4 T cell infiltration following treatment. Syngeneic PTEN-proficient and PTEN-deficient Myc-CAP mice were treated with a single dose of degarelix, rucaparib (PARP inhibitor), BKM120 (pan-PI3K inhibitor), or anti-PD-L1 antibody, singly and in combination for 3 weeks. (37A) Tumor volumes were monitored, as indicated. (37B) Tumors were harvested at the end of treatment and macrophage infiltration and activation (upper left and right panels), and CD4 and CD8 T cell infiltration (lower left and right panels, respectively) were analyzed by flow cytometry. n=3 animals/group.
# FIG. 44. […] Syngeneic mice bearing established PTEN-proficient (PTEN^+/+) and PTEN-deficient (PTEN^−/−) Myc-CAP tumors (200 mm^3) were treated with DMXAA ([…] intra-tumoral dose) for 12 days. Tumor volumes were monitored daily and graphed relative to untreated groups. n=3-5 mice per group.
# (§1) FIGS. 45A and 45B. […] Syngeneic mice bearing established PTEN-proficient (PTEN^+/+) and PTEN-deficient (PTEN^−/−) Myc-CAP tumors (200 mm^3) were treated with DMXAA (500 μg, single intra-tumoral dose) for 12 days. The harvested tumors were analyzed by flow cytometry for CD45 (45A) and tumor infiltrating immune cell subsets (45B). n=3-5 mice per group.
# FIGS. 46A-46C. […] Syngeneic mice bearing established PTEN-proficient (PTEN^+/+) or PTEN-deficient (PTEN^−/−) Myc-CAP tumors (200 mm^3) were treated with DMXAA (500 μg, single intra-tumoral dose) for 12 days. The harvested tumors were analyzed by flow cytometry for activation status of immune cells: (46A) MHC-II/PD-L1 expression on macrophages; (46B) 41bb/PD-1 expression on CD4+FoxP3-T-cells and (46C) on CD8+T-cells. n=3-5 mice per group.
# as §1, with “FIG. 47.” for “FIGS. 45A and 45B.”, “CD4+T-cells subsets, specifically FoxP3+” for “CD45 (45A)”, “FoxP3− fractions.” for “tumor infiltrating immune cell subsets (45B).”
# In vivo drug efficacy studies using murine tumor models. Wild-type (WT) C57BL/6J, FVB/NJ mice were purchased from Jackson laboratories and mice were kept in an AALAC (American Association for the Accreditation of Laboratory Animal Care) certified barrier facility at the University of Chicago. Animal work was carried out according to approved IACUC (Institutional Animal Care and Use Committee protocols). For Myc-CAP cell line based experiments, mice aged 8-10 weeks were engrafted with 1 million cells re-suspended in 1×PBS, under anesthesia. Treatments were started when tumor volumes reached approximately 250-400 mm^3, and mice were randomly allocated to treatment groups as indicated. Tumor volume was calculated using the formula: 0.5×longest diameter×(shortest diameter)^2. Euthanasia was performed for tumor ulceration and/or tumor diameter >2 cm, as per IACUC-approved protocol. All in vivo treatments were done for 20-23 days and tumor volume measurements were collected on a daily basis. For ID8 tumors, the weights (gm) as well as the abdominal girth (mm) measurements were recorded daily. […]
# [1] = DMXAA 500 μg single intra-tumoral dose, 12 days
# [2] = relative to PTEN-proficient counterparts
# [3] = copanlisib 14 mg/kg every other day
Structure (SMILES),Gr-MDSCs [1],global immune infiltration (CD45) [1],"tumor responsiveness of PTEN-deficient relative to PTEN-proficient Myc-CAP tumors (DMXAA single intra-tumoral dose, 12 days)",response of PTEN-deficient prostate cancers to direct STING agonist (PTEN-deficient prostate cancer murine models (Example 1)),"macrophage, CD4 and CD8 T-cell activation [2]",regulatory T-cell infiltration [2],MDSC infiltration [3],tumor growth [3]
"Cc1ccc2c(=O)c3cccc(CC(=O)O)c3oc2c1C [DMXAA, 5,6-Dimethylxanthenone-4-acetic Acid]",trend towards decreasing Gr-MDSCs,increases global immune infiltration,more responsive,resistant,"selectively increases macrophage, CD4 and CD8 T-cell activation",increases regulatory T-cell infiltration,,
COc1c(OCCCN2CCOCC2)ccc2c1N=C(NC(=O)c1cnc(N)nc1)N1CCN=C21 [copanlisib],,,,,,,decreasing,retards growth
